Test results reported in PubChem BioAssay (NCI).
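Five compound concentrations were applied to cells in 96-well plates for 48 hours; endpoints were derived by simple linear interpolation of the resulting dose-response curve. Definition used: TGI = concentration required for complete inhibition of growth.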

Key:
Experiment in all cases: inhibition of tumour cell growth, NCI panel, 48 h
RPMI-8226 leukemia = system: RPMI-8226 leukemia
SN12C renal = system: SN12C renal
K-562 leukemia = system: K-562 leukemia
CCRF-CEM leukemia = system: CCRF-CEM leukemia
DLD-1 colon = system: DLD-1 colon
SK-MEL-28 melanoma = system: SK-MEL-28 melanoma
RXF 393 renal = system: RXF 393 renal
UACC-62 melanoma = system: UACC-62 melanoma
M14 melanoma = system: M14 melanoma
NCI-H226 lung = system: NCI-H226 lung
HOP-18 NSCLC = system: HOP-18 NSCLC
MALME-3M melanoma = system: MALME-3M melanoma
SF-539 CNS = system: SF-539 CNS
HL-60(TB) leukemia = system: HL-60(TB) leukemia
UO-31 renal = system: UO-31 renal
786-0 renal = system: 786-0 renal
KM12 colon = system: KM12 colon
U251 CNS = system: U251 CNS
IGROV1 ovarian = system: IGROV1 ovarian
HCC-2998 colon = system: HCC-2998 colon
OVCAR-8 ovarian = system: OVCAR-8 ovarian
SK-MEL-5 melanoma = system: SK-MEL-5 melanoma
LXFL 529 NSCLC = system: LXFL 529 NSCLC
MOLT-4 leukemia = system: MOLT-4 leukemia
SF-268 CNS = system: SF-268 CNS
LOX IMVI melanoma = system: LOX IMVI melanoma
A549 NSCLC = system: A549 NSCLC
NCI-H460 lung = system: NCI-H460 lung
OVCAR-5 ovarian = system: OVCAR-5 ovarian
RXF-631 renal = system: RXF-631 renal
M19-MEL melanoma = system: M19-MEL melanoma
DMS 114 small cell lung = system: DMS 114 small cell lung
ACHN renal = system: ACHN renal
SF-295 CNS = system: SF-295 CNS
OVCAR-3 ovarian = system: OVCAR-3 ovarian
HT29 colon = system: HT29 colon
OVCAR-4 ovarian = system: OVCAR-4 ovarian
NCI-H23 lung = system: NCI-H23 lung
SNB-75 CNS = system: SNB-75 CNS
SW-620 colon = system: SW-620 colon
SNB-78 CNS = system: SNB-78 CNS
A498 renal = system: A498 renal
SK-OV-3 ovarian = system: SK-OV-3 ovarian
HCT-15 colon = system: HCT-15 colon
SNB-19 CNS = system: SNB-19 CNS
SR leukemia = system: SR leukemia
DMS 273 small cell lung = system: DMS 273 small cell lung
XF 498 CNS = system: XF 498 CNS
TK-10 renal = system: TK-10 renal
EKVX NSCLC = system: EKVX NSCLC
SK-MEL-2 melanoma = system: SK-MEL-2 melanoma
HOP-62 NSCLC = system: HOP-62 NSCLC
UACC-257 melanoma = system: UACC-257 melanoma
KM20L2 colon = system: KM20L2 colon
HOP-92 NSCLC = system: HOP-92 NSCLC
NCI-H522 lung = system: NCI-H522 lung
CAKI-1 renal = system: CAKI-1 renal
HCT-116 colon = system: HCT-116 colon
COLO 205 colon = system: COLO 205 colon

C=CC[P@@]1(=O)O[C@H](c2ccccc2)C(C)N1C(C)C (stereo partly drawn)
TGI (RPMI-8226 leukemia): > 100 µM
TGI (SN12C renal): > 100 µM
TGI (K-562 leukemia): > 100 µM
TGI (CCRF-CEM leukemia): > 100 µM
TGI (DLD-1 colon): > 100 µM
TGI (SK-MEL-28 melanoma): > 100 µM
TGI (RXF 393 renal): > 100 µM
TGI (UACC-62 melanoma): > 100 µM
TGI (M14 melanoma): > 100 µM
TGI (NCI-H226 lung): > 100 µM
TGI (HOP-18 NSCLC): > 100 µM
TGI (MALME-3M melanoma): > 100 µM
TGI (SF-539 CNS): > 100 µM
TGI (HL-60(TB) leukemia): > 100 µM
TGI (UO-31 renal): > 100 µM
TGI (786-0 renal): > 100 µM
TGI (KM12 colon): > 100 µM
TGI (U251 CNS): > 100 µM
TGI (IGROV1 ovarian): > 100 µM
TGI (HCC-2998 colon): > 100 µM
TGI (OVCAR-8 ovarian): > 100 µM
TGI (SK-MEL-5 melanoma): > 100 µM
TGI (LXFL 529 NSCLC): > 100 µM
TGI (MOLT-4 leukemia): > 100 µM
TGI (SF-268 CNS): > 100 µM
TGI (LOX IMVI melanoma): > 100 µM
TGI (A549 NSCLC): > 100 µM
TGI (NCI-H460 lung): > 100 µM
TGI (OVCAR-5 ovarian): > 100 µM
TGI (RXF-631 renal): > 100 µM
TGI (M19-MEL melanoma): > 100 µM
TGI (DMS 114 small cell lung): > 100 µM
TGI (ACHN renal): > 100 µM
TGI (SF-295 CNS): > 100 µM
TGI (OVCAR-3 ovarian): > 100 µM
TGI (HT29 colon): > 100 µM
TGI (OVCAR-4 ovarian): > 100 µM
TGI (NCI-H23 lung): > 100 µM
TGI (SNB-75 CNS): > 100 µM
TGI (SW-620 colon): > 100 µM
TGI (SNB-78 CNS): > 100 µM
TGI (A498 renal): > 100 µM
TGI (SK-OV-3 ovarian): > 100 µM
TGI (HCT-15 colon): > 100 µM
TGI (SNB-19 CNS): > 100 µM
TGI (SR leukemia): > 100 µM
TGI (DMS 273 small cell lung): > 100 µM
TGI (XF 498 CNS): > 100 µM
TGI (TK-10 renal): > 100 µM
TGI (EKVX NSCLC): > 100 µM

O=C(Nc1ccccc1)O/N=C1/CCCC/C1=C\c1ccccc1
TGI (RPMI-8226 leukemia): 52.5 µM
TGI (SN12C renal): 31 µM
TGI (K-562 leukemia): 29.1 µM
TGI (CCRF-CEM leukemia): 33.1 µM
TGI (DLD-1 colon): 29.4 µM
TGI (SK-MEL-28 melanoma): 31.8 µM
TGI (RXF 393 renal): 32 µM
TGI (UACC-62 melanoma): 30 µM
TGI (M14 melanoma): 32.8 µM
TGI (SK-MEL-2 melanoma): 29.2 µM
TGI (NCI-H226 lung): 49.6 µM
TGI (HOP-18 NSCLC): 29.9 µM
TGI (HOP-62 NSCLC): 40.4 µM
TGI (SF-539 CNS): 31.7 µM
TGI (UACC-257 melanoma): 35.1 µM
TGI (UO-31 renal): 27 µM
TGI (KM20L2 colon): 43.2 µM
TGI (786-0 renal): 32.5 µM
TGI (U251 CNS): 30.2 µM
TGI (IGROV1 ovarian): 17.7 µM
TGI (HCC-2998 colon): 41.7 µM
TGI (HOP-92 NSCLC): 46 µM
TGI (OVCAR-8 ovarian): 42.8 µM
TGI (NCI-H522 lung): 30.4 µM
TGI (SK-MEL-5 melanoma): 25.6 µM
TGI (LXFL 529 NSCLC): 21.4 µM
TGI (MOLT-4 leukemia): 26.5 µM
TGI (SF-268 CNS): 32.8 µM
TGI (LOX IMVI melanoma): 34 µM
TGI (CAKI-1 renal): 29.2 µM
TGI (NCI-H460 lung): 28.3 µM
TGI (OVCAR-5 ovarian): 63.9 µM
TGI (HCT-116 colon): 26.6 µM
TGI (RXF-631 renal): 47.3 µM
TGI (M19-MEL melanoma): 34 µM
TGI (DMS 114 small cell lung): 24.8 µM
TGI (ACHN renal): 30.5 µM
TGI (SF-295 CNS): 29.9 µM
TGI (OVCAR-3 ovarian): 28.5 µM
TGI (HT29 colon): 95.1 µM
TGI (OVCAR-4 ovarian): 30.3 µM
TGI (NCI-H23 lung): 48.8 µM
TGI (SNB-75 CNS): 28.6 µM
TGI (SW-620 colon): 29.9 µM
TGI (SNB-78 CNS): 33 µM
TGI (A498 renal): 53.6 µM
TGI (COLO 205 colon): 28.2 µM
TGI (SK-OV-3 ovarian): 35.6 µM
TGI (HCT-15 colon): 23.4 µM
TGI (SR leukemia): 43.6 µM
TGI (DMS 273 small cell lung): 31.2 µM
TGI (TK-10 renal): 31.7 µM

CN(C)CCN1N=Nc2cccc3cccc1c23
TGI (RPMI-8226 leukemia): > 64.3 µM
TGI (SN12C renal): > 100 µM
TGI (K-562 leukemia): > 100 µM
TGI (CCRF-CEM leukemia): > 78.8 µM
TGI (DLD-1 colon): > 100 µM
TGI (SK-MEL-28 melanoma): > 100 µM
TGI (UACC-62 melanoma): > 100 µM
TGI (M14 melanoma): > 100 µM
TGI (SK-MEL-2 melanoma): > 100 µM
TGI (NCI-H226 lung): > 100 µM
TGI (HOP-18 NSCLC): > 100 µM
TGI (MALME-3M melanoma): > 100 µM
TGI (HOP-62 NSCLC): > 100 µM
TGI (SF-539 CNS): > 100 µM
TGI (UACC-257 melanoma): > 100 µM
TGI (HL-60(TB) leukemia): > 70.8 µM
TGI (UO-31 renal): > 100 µM
TGI (KM20L2 colon): > 100 µM
TGI (786-0 renal): > 100 µM
TGI (KM12 colon): > 100 µM
TGI (U251 CNS): > 100 µM
TGI (IGROV1 ovarian): > 100 µM
TGI (HCC-2998 colon): > 100 µM
TGI (HOP-92 NSCLC): > 100 µM
TGI (OVCAR-8 ovarian): > 100 µM
TGI (NCI-H522 lung): > 100 µM
TGI (SK-MEL-5 melanoma): > 100 µM
TGI (LXFL 529 NSCLC): > 100 µM
TGI (MOLT-4 leukemia): > 87.3 µM
TGI (SF-268 CNS): > 100 µM
TGI (LOX IMVI melanoma): > 100 µM
TGI (A549 NSCLC): > 100 µM
TGI (CAKI-1 renal): > 100 µM
TGI (NCI-H460 lung): > 100 µM
TGI (OVCAR-5 ovarian): > 100 µM
TGI (HCT-116 colon): > 100 µM
TGI (RXF-631 renal): > 100 µM
TGI (DMS 114 small cell lung): > 100 µM
TGI (ACHN renal): > 100 µM
TGI (SF-295 CNS): > 100 µM
TGI (OVCAR-3 ovarian): > 100 µM
TGI (HT29 colon): > 100 µM
TGI (OVCAR-4 ovarian): > 100 µM
TGI (NCI-H23 lung): > 100 µM
TGI (SNB-75 CNS): > 100 µM
TGI (SW-620 colon): > 53.6 µM
TGI (A498 renal): > 100 µM
TGI (COLO 205 colon): > 100 µM
TGI (SK-OV-3 ovarian): > 100 µM
TGI (HCT-15 colon): > 100 µM
TGI (SNB-19 CNS): > 100 µM
TGI (SR leukemia): 40.2 µM
TGI (DMS 273 small cell lung): 87.7 µM
TGI (XF 498 CNS): > 100 µM
TGI (TK-10 renal): > 100 µM
TGI (EKVX NSCLC): > 100 µM
